Measurements published in US20220162191A1, “SMALL MOLECULE MODULATORS OF IL-17” (LEO PHARMA A/S, priority 2019, published 2022).

Biological target: T1, human IL-17AA (Homo sapiens, UniProt Q16552)
T1 construct: host or cells: HEK (human embryonic kidney) cells
T1 sequence (Q16552 24-155) 1: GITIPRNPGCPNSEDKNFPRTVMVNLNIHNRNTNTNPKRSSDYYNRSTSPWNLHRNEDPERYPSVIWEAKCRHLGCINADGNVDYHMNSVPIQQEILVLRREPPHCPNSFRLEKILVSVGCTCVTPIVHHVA
T1 sequence (Q16552 24-155) 2: T1 sequence (Q16552 24-155) 1
Assay: IL-8 release assay in human epithelial keratinocytes adult (HEKa)
Type: cell-based
Details: 3 ng/ml human IL-17AA + 10 ng/ml human TNFalpha, 68-72 h, IL-8 by HTRF, read-out: Rel EC50 L-8 release assay
Procedure, shortened: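 Adult human keratinocytes in Epilife with HKGS minus hydrocortisone, treated with compound then stimulated with final 3 ng/ml HEK-derived human IL-17AA plus 10 ng/ml TNF-alpha for 68–72 h at 37 °C; TNF-alpha alone defines 100% inhibition. Secreted IL-8 by HTRF; relative IC50 and Emax from four-parameter fits.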

Row | Compound | EC50 [nM]
1 | C[C@H]1CNCCN1c1cc(-c2ccc(Cl)c(C[C@H](NC(=O)c3ccnn3C)C(=O)Nc3ccc(-c4cncn4C)cc3)c2)ccn1 [Example 208, N-[(1S)-1-[[2-chloro-5-[2-[(2S)-2-methylpiperazin-1-yl]-4-pyridyl]phenyl]methyl]-2-[4-(3-methylimidazol-4-yl)anilino]-2-oxo-ethyl]-2-methyl-pyrazole-3-carboxamide] | 100 to 1000
2 | Cc1cnn(C)c1-c1ccc(NC(=O)[C@@H](NC(=O)c2ccnn2C)[C@@H]2CCc3ccc(-c4ccnc(N5C[C@@H]6C[C@H]5CO6)c4)cc32)cc1 [Example 378, N-[(1S)-2-[4-(2,4-dimethylpyrazol-3-yl)anilino]-1-[(1R)-6-[2-[(1S,4S)-2-oxa-5-azabicyclo[2.2.1]heptan-5-yl]-4-pyridyl]indan-1-yl]-2-oxo-ethyl]-2-methyl-pyrazole-3-carboxamide] | < 100
3 | CC(C)CC(=O)N[C@@H](Cc1cc(-c2ccc(=O)n(C(C)C)c2)ccc1Cl)C(=O)Nc1ccc(-c2nncn2C)cc1 [Example 115, N-[(1S)-1-[[2-chloro-5-(1-isopropyl-6-oxo-3-pyridyl)phenyl]methyl]-2-[4-(4-methyl-1,2,4-triazol-3-yl)anilino]-2-oxo-ethyl]-3-methyl-butanamide] | > 1000
4 | Cc1noc(C)c1-c1ccc(NC(=O)C(Cc2cc(-c3ccc(=O)n(C(C)C)c3)ccc2Cl)NC(=O)c2ccnn2C)cc1 (centres unmarked) [Example 93, N-[1-[[2-chloro-5-(1-isopropyl-6-oxo-3-pyridyl)phenyl]methyl]-2-[4-(3,5-dimethylisoxazol-4-yl)anilino]-2-oxo-ethyl]-2-methyl-pyrazole-3-carboxamide] | 100 to 1000
5 | Cc1cnn(C)c1-c1ccc(NC(=O)[C@@H](NC(=O)C2(F)CC2)[C@@H](c2cccc(-c3cc(N4C[C@@H]5C[C@H]4CO5)ncn3)c2)C2CC2)cc1 [Example 352, N-[(1S)-1-[(R)-cyclopropyl-[3-[6-[(1S,4S)-2-oxa-5-azabicyclo[2.2.1]heptan-5-yl]pyrimidin-4-yl]phenyl]methyl]-2-[4-(2,4-dimethylpyrazol-3-yl)anilino]-2-oxo-ethyl]-1-fluoro-cyclopropanecarboxamide] | 100 to 1000
6 | Cc1n[nH]c(C)c1-c1ccc(NC(=O)[C@H](Cc2cc(-c3cnn(C(C)(C)C)c3)ccc2Cl)NC(=O)c2ccnn2C)cc1 [Example 200, N-[(1S)-1-[[5-(1-tert-butylpyrazol-4-yl)-2-chloro-phenyl]methyl]-2-[4-(3,5-dimethyl-1H-pyrazol-4-yl)anilino]-2-oxo-ethyl]-2-methyl-pyrazole-3-carboxamide] | < 100
7 | Cn1cncc1-c1ccc(NC(=O)[C@H](Cc2cc(-c3cccc([C@H]4CNCCO4)c3)ccc2Cl)NC(=O)c2ccnn2C)cc1 [Example 220, N-[(1S)-1-[[2-chloro-5-[3-[(2S)-morpholin-2-yl]phenyl]phenyl]methyl]-2-[4-(3-methylimidazol-4-yl)anilino]-2-oxo-ethyl]-2-methyl-pyrazole-3-carboxamide] | 100 to 1000
8 | Cc1nccn1-c1ccc(NC(=O)[C@@H](NC(=O)c2ccnn2C)[C@@H]2CCCc3ccc(-c4ccnc(N5C[C@@H]6C[C@H]5CO6)c4)cc32)cc1 [Example 402, 2-methyl-N-[(1S)-2-[4-(2-methylimidazol-1-yl)anilino]-1-[(1R)-7-[2-[(1S,4S)-2-oxa-5-azabicyclo[2.2.1]heptan-5-yl]-4-pyridyl]tetralin-1-yl]-2-oxo-ethyl]pyrazole-3-carboxamide] | < 100
9 | CC(c1cc(-c2ccc(=O)n(C(C)C)c2)ccc1Cl)[C@H](NC(=O)OC1CC1)C(=O)Nc1ccc(-c2cncn2C)cc1 (stereo partly drawn) [Example 53, cyclopropyl N-[(1S)-2-[2-chloro-5-(1-isopropyl-6-oxo-3-pyridyl)phenyl]-1-[[4-(3-methylimidazol-4-yl)phenyl]carbamoyl]propyl] carbamate] | 100 to 1000
10 | CC(C)n1cc(-c2ccc(Cl)c(C[C@H](NC(=O)C3CC(F)(F)C3)C(=O)Nc3ccc(-c4nncn4C)cc3)c2)ccc1=O [Example 291, N-[(1S)-1-[[2-chloro-5-(1-isopropyl-6-oxo-3-pyridyl)phenyl]methyl]-2-[4-(4-methyl-1,2,4-triazol-3-yl)anilino]-2-oxo-ethyl]-3,3-difluoro-cyclobutanecarboxamide] | > 1000
11 | Cc1cnn(C)c1-c1ccc(NC(=O)[C@H](Cc2cc(-c3ccc(=O)n(C(C)C)c3)ccc2Cl)NC(=O)C(C)C)cc1 [Example 328, N-[(1S)-1-[[2-chloro-5-(1-isopropyl-6-oxo-3-pyridyl)phenyl]methyl]-2-[4-(2,4-dimethylpyrazol-3-yl)anilino]-2-oxo-ethyl]-2-methyl-propanamide] | > 1000
12 | Cn1cnnc1-c1ccc(NC(=O)C(Cc2cc(-c3cccc(C4CC4)c3)ccc2Cl)NC(=O)c2ccnn2C)cc1 (centres unmarked) [Example 170, N-[1-[[2-chloro-5-(3-cyclopropylphenyl)phenyl]methyl]-2-[4-(4-methyl-1,2,4-triazol-3-yl)anilino]-2-oxo-ethyl]-2-methyl-pyrazole-3-carboxamide] | 100 to 1000

Second part, the compound after the results:

Row | EC50 [nM] | Compound
13 | < 100 | Cc1n[nH]c(C)c1-c1ccc(NC(=O)[C@@H](NC(=O)c2ccnn2C)[C@@H]2CCCc3ccc(-c4ccnc(N5C[C@H]6C[C@@H]5CO6)c4)cc32)cc1 [Example 394, N-[(1S)-2-[4-(3,5-dimethyl-1H-pyrazol-4-yl)anilino]-1-[(1R)-7-[2-[(1R,4R)-2-oxa-5-azabicyclo[2.2.1]heptan-5-yl]-4-pyridyl]tetralin-1-yl]-2-oxo-ethyl]-2-methyl-pyrazole-3-carboxamide]
14 | < 100 | Cc1n[nH]c(C)c1-c1ccc(NC(=O)[C@@H](NC(=O)c2ccnn2C)[C@@H]2CCc3ccc(-c4cnn(CC(C)(C)O)c4)cc32)cc1 [Example 13, N-[(1S)-2-[4-(3,5-dimethyl-1H-pyrazol-4-yl)anilino]-1-[(1R)-6-[1-(2-hydroxy-2-methyl-propyl)pyrazol-4-yl]indan-1-yl]-2-oxo-ethyl]-2-methyl-pyrazole-3-carboxamide]
15 | 100 to 1000 | Cc1cnn(C)c1-c1ccc(NC(=O)[C@@H](NC(=O)C2(F)CC2)[C@@H]2CCc3ccc(-c4ccnc(N5CC[C@H](O)C5)c4)cc32)cc1 [Example 359, N-[(1S)-2-[4-(2,4-dimethylpyrazol-3-yl)anilino]-1-[(1R)-6-[2-[(3S)-3-hydroxypyrrolidin-1-yl]-4-pyridyl]indan-1-yl]-2-oxo-ethyl]-1-fluoro-cyclopropanecarboxamide]
16 | < 100 | Cc1n[nH]c(C)c1-c1ccc(NC(=O)[C@@H](NC(=O)C2(F)CC2)[C@@H]2CCc3ccc(-c4ccnc(N5CCNCC5)c4)cc32)cc1 [Example 9, N-[(1S)-2-[4-(3,5-dimethyl-1H-pyrazol-4-yl)anilino]-2-oxo-1-[(1R)-6-(2-piperazin-1-yl-4-pyridyl)indan-1-yl]ethyl]-1-fluoro-cyclopropanecarboxamide]
17 | 100 to 1000 | Cc1cnn(C)c1-c1ccc(NC(=O)[C@@H](NC(=O)c2ccnn2C)[C@@H]2CCc3ccc(-c4ccnc(C(C)C)n4)cc32)cc1 [Example 382, N-[(1S)-2-[4-(2,4-dimethylpyrazol-3-yl)anilino]-1-[(1R)-6-(2-isopropylpyrimidin-4-yl)indan-1-yl]-2-oxo-ethyl]-2-methyl-pyrazole-3-carboxamide]
18 | < 100 | Cc1n[nH]c(C)c1-c1ccc(NC(=O)[C@H](Cc2cc(-c3ccnc(N4CC5COCC5C4)n3)ccc2Cl)NC(=O)C2(F)CC2)cc1 (stereo partly drawn) [Example 318, N-[(1S)-1-[[5-[2-(1,3,3a,4,6,6a-hexahydrofuro[3,4-c]pyrrol-5-yl)pyrimidin-4-yl]-2-chloro-phenyl]methyl]-2-[4-(3,5-dimethyl-1H-pyrazol-4-yl)anilino]-2-oxo-ethyl]-1-fluoro-cyclopropanecarboxamide]
19 | < 100 | Cc1n[nH]c(C)c1-c1ccc(NC(=O)[C@@H](NC(=O)C2(F)CC2)[C@@H]2CCCc3ccc(-c4cc(C)c(=O)n(C(C)C)c4)cc32)cc1 [Example 391, N-[(1S)-2-[4-(3,5-dimethyl-1H-pyrazol-4-yl)anilino]-1-[(1R)-7-(1-isopropyl-5-methyl-6-oxo-3-pyridyl)tetralin-1-yl]-2-oxo-ethyl]-1-fluoro-cyclopropanecarboxamide]
20 | < 100 | Cc1n[nH]c(C)c1-c1ccc(NC(=O)[C@@H](NC(=O)c2ccnn2C)[C@@H]2CCc3ccc(-c4ccnc(C(C)(C)O)c4)cc32)cc1 [Example 16, N-[(1S)-2-[4-(3,5-dimethyl-1H-pyrazol-4-yl)anilino]-1-[(1R)-6-[2-(1-hydroxy-1-methyl-ethyl)-4-pyridyl]indan-1-yl]-2-oxo-ethyl]-2-methyl-pyrazole-3-carboxamide]
21 | 100 to 1000 | Cc1cc(-c2ccc3c(c2)[C@H]([C@H](NC(=O)C2(F)CC2)C(=O)Nc2ccc(-n4ccnc4C)cc2)CCC3)cn(C(C)C)c1=O [Example 406, 1-fluoro-N-[(1S)-1-[(1R)-7-(1-isopropyl-5-methyl-6-oxo-3-pyridyl)tetralin-1-yl]-2-[4-(2-methylimidazol-1-yl)anilino]-2-oxo-ethyl]cyclopropanecarboxamide]
22 | < 100 | Cc1n[nH]c(C)c1-c1ccc(NC(=O)[C@H](Cc2cc(-c3ccnc(N4CCOCC4)c3)ccc2Cl)NC(=O)C2(F)CC2)cc1 [Example 225, N-[(1S)-1-[[2-chloro-5-(2-morpholino-4-pyridyl)phenyl]methyl]-2-[4-(3,5-dimethyl-1H-pyrazol-4-yl)anilino]-2-oxo-ethyl]-1-fluoro-cyclopropanecarboxamide]
23 | < 100 | Cc1n[nH]c(C)c1-c1ccc(NC(=O)[C@@H](NC(=O)C2(F)CC2)[C@@H]2CCCc3ccc(-c4ccc(=O)n(C(C)C)c4)cc32)cc1O [Example 47, N-[(1S)-2-[4-(3,5-dimethyl-1H-pyrazol-4-yl)-3-hydroxy-anilino]-1-[(1R)-7-(1-isopropyl-6-oxo-3-pyridyl)tetralin-1-yl]-2-oxo-ethyl]-1-fluoro-cyclopropanecarboxamide]
